Measured values as given in patent US12582720B2, “Compound for preventing or treating lipid metabolism-related diseases” (Fudan University, priority 2020, dated 2026).

What was measured:
[1] = tested on: autophagosome-lipid droplet colocalization in MEF cells; assay: Colocalization of autophagosome and lipid droplets in mCherry-LC3B transfected MEF cells; format: cell-based, mouse; conditions: 5 μM, 3 h, compared to DMSO control
Procedure, shortened: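 mCherry-LC3B expressed in MEF cells by plasmid transfection; lipid droplets induced with OA at 30 h post-transfection, compound added 6 h later for 3 h. Cells fixed, stained with BODIPY and DAPI, and LC3 puncta around lipid droplets imaged by confocal microscopy.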

[2] = tested on: lipid droplets in human normal liver cell line QSG7701; assay: Endogenous lipid droplets in human normal liver cell line QSG7701; format: cell-based; conditions: QSG7701, no induction, 5 μM, 24 h
Procedure: 10% FBS+90% RPMI 1640 culture medium was used for cultivation, cell incubator culture condition of 37° C. and 5% CO2 was used. Cells were plated as 50 thousands/well (12 well plate was plated with aseptic treated slides). When cells grew to a confluence of 80-90%, the compound (Compound 1A or Compound 2A, at a concentration of 5 μM) was added for treatment, and LC3 binding Compound A1, A5, lipid droplet probe Sudan IV as well as DMSO acted as a control. […]. In the compounds of present disclosure, LC3 binding moiety was covalently linked with lipid droplet binding moiety, and thus could achieve the effect of reducing liver cell endogenous lipid droplet.

db/db mice = assay: Effect of the compound on db/db mouse; format: in vivo; conditions: 30 mg/kg ip, 8 mice per group
Source text: Experimental animals: nineteen-week-old db/db male mice (C57BL/6J-Lepr^db/Lepr^db) were obtained from Shanghai Model Organisms Co., Ltd., and acclimatized for at least 1 week before experiments. The mice had ad libitum access to standard chow and water.
Normal control: The C57BL/6 male mice fed on standard irradiated chow diet (Shuyishuer Inc. cat. no. D12450J) from Changzhou Shuyishuer Biotechnology Co., Ltd. (Shuyishuer Inc.) were used as the normal control.
Mice were randomly divided into 7 groups, wherein 8 mice in each group, and the mice in each group were subjected to intraperitoneal injection to administer: (1) only vehicle (no DMSO) group: 0% DMSO+39% PEG300 (Selleck, cat. no. S6704)+5% Tween-80 (Selleck, cat. no. S6702)+56% distilled water, (2) DMSO group: 1% DMSO+39% PEG300+5% Tween-80+55% H2O (DMSO vehicle), (3) C3 group: Compound 3A was in DMSO vehicle, (4) C4 group: Compound 4A in DMSO vehicle, (5) SIII group: Sudan III DMSO vehicle, (6) GW5074 group: Compound A1 in DMSO vehicle, (7) DP group: Compound A5 in DMSO vehicle. For groups (3)-(7), the compound (30 mg/kg, administration volume 150 μL) was administered through intraperitoneally injection for consecutive 2 weeks, and once a day. The food and water intake were measured with an analytical electronic balance.
Bodyweight was weighed every day.
If time permitted, tail vein blood (30-50 μL) was collected every 1-3 days.
24 hours after the time point of the last injection, end point maxillary surface blood sampling was performed on each mouse. All mice were Euthanized by cervical dislocation, and then tissue sample (e.g., liver samples) were obtained and stored in Eppendorf tubes at −80° C. for assay.
12 days after initiation of administration, each mouse was scanned by a minispec nuclear magnetic resonance (NMR) instrument (Bruker LF50 II “Minispec” body composition analyzer, Bruker Optics) that was designed for experimental animals, and based on the measurement of solid and liquid parts of the samples, the body fat and lean body weight were determined by this device.
Serum: Tail vein blood samples (30-50 μL) were left to coagulate in […] blood collection tubes (Jiangsu Kangjian Medical Products Co., Ltd., model KJ002) at room temperature without interference, and then centrifuged at 2,000×g for 10 minutes at 4° C. to remove the clot. Supernatant was collected to obtain the serum.
Liver: Liver samples were obtained as described in (2). 100 mg of liver tissue was homogenized in 0.9 mL of absolute alcohol under ice-cold conditions, and then centrifuged (2,500 r.p.m/min, 10 min). Supernatant was collected, and then stored at −80° C.
The kits were used according to the instruction from manufacturer (TAG: TG kit, cat. no. A110-1-1; TC: T-CHO kit, cat. no. A111-1. FFA: NEFA kit, cat. No. A042-2-1; they were all from Nanjing Jiancheng Bioengineering Institute). TAG, TC and FFA levels in serum and liver samples were determined.
According to the lipidomic method as described above, the contents of liver total lipid, glycerolipid, sterol lipid, neutral sphingolipid and polar lipid were analyzed. The log 2-fold change (log2 FC) and statistical significance (p-value) relative to the DMSO group were calculated.

[3] = tested on: lipid droplets in 3T3-L1 fat precursor cell differentiated fat cells; assay: Lipid droplets in 3T3-L1 fat precursor cell differentiated fat cells; format: cell-based, mouse; conditions: 3T3-L1 differentiated fat cells, 5 μM, 24 h
LC3 = LC3 (Homo sapiens, UniProt Q9GZQ8); conditions: reported by Li et al., Nature 575, 203-209 (2019); cited from earlier work
[4] = tested on: lipid droplets in SH-SY5Y cells; assay: Reduction of OA-induced lipid droplets in SH-SY5Y cells; format: cell-based, human; conditions: unconjugated compound 5 μM
Source text: The reduction of lipid droplets in SH-SY5Y cells by Compound 1A and Compound 2A was detected by a method that was similar to Example 2, and the result was shown in FIG. 18.
The effects of unconjugated LC3 binding Compound A1, A5 and unconjugated lipid droplet probe ORBB […] respectively on lipid droplets in SH-SY5Y cells (FIG. 20A) and MEF cells (FIG. 20B) were detected by a method similar to Example 2.

LC3B = LC3B (Homo sapiens, UniProt Q9GZQ8); assay: MST detection of affinity activity with LC3B; format: binding; parameters: His8 (with TEV site) (N); made in house; host or cells: Escherichia coli BL21(DE3)pLysS; conditions: MST; read-out: Kd, equilibrium dissociation constant between the LC3 binding compound and LC3B
Procedure, shortened: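 Microscale thermophoresis uses recombinant GST-LC3B labelled with RED-NHS fluorophore at 500 nM. Buffer is 20 mM HEPES pH 7.4 with 150 mM NaCl. Readings are taken at 40% infrared laser power and 20% LED power.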

## O=C1Nc2ccc(I)cc2C1=Cc1cc(Br)c(O)c(Br)c1 [Compound A1, 3-(3,5-dibromo-4-hydroxylbenzylidene)-5-iodoindolin-2-one, reference compound]
[1]
  ratio of colocalization of red and green aggregation point (autophagosome-lipid droplet): No such effect
[2]
  endogenous lipid droplets (amount): no significant effect
db/db mice
  mice died in the experiment: One mouse
[3]
  amount/size of lipid droplets: no significant effect
LC3
  binding to LC3: can bind to LC3 with affinity
[4]
  lipid droplets (number and size): did not significantly decrease or become smaller
LC3B
  Kd: 4.76 µM
